Source: ChEMBL document CHEMBL1629669, “Two clinical strains of Klebsiella pneumoniae carrying plasmid-borne blaIMP-4, blaSHV-12, and armA isolated at a Pediatric Center in Shanghai, China” (2009)
≈ marks a conversion by molar mass, not a printed value.

Columns and labels:
Type in all cases: functional
Klebsiella pneumoniae [1] = assay: Antimicrobial activity against multidrug resistant Klebsiella pneumoniae isolate KpSCMC1 harboring int1, bla IMP-4, bla SHV-12, armA and sul1 gene isolated from patient with pulmonary infection by disk diffusion method
Klebsiella pneumoniae [2] = assay: Antimicrobial activity against multidrug resistant Klebsiella pneumoniae isolate KpSCMC2 harboring int1, bla IMP-4, bla SHV-12, armA and sul1 gene isolated from patient with pulmonary infection by disk diffusion method
Klebsiella pneumoniae [3] = assay: Antimicrobial activity against carbapenem susceptible Klebsiella pneumoniae isolate KpSCMC2c harboring bla SHV-12 gene isolated from patient with pulmonary infection by disk diffusion method
Klebsiella pneumoniae [4] = assay: Antimicrobial activity against multidrug resistant Klebsiella pneumoniae isolate KpSCMC1 harboring int1, bla IMP-4, bla SHV-12, armA and sul1 gene isolated from patient with pulmonary infection by Etest method
Klebsiella pneumoniae [5] = assay: Antimicrobial activity against multidrug resistant Klebsiella pneumoniae isolate KpSCMC2 harboring int1, bla IMP-4, bla SHV-12, armA and sul1 gene isolated from patient with pulmonary infection by Etest method
Klebsiella pneumoniae [6] = assay: Antimicrobial activity against carbapenem susceptible Klebsiella pneumoniae isolate KpSCMC2c harboring bla SHV-12 gene isolated from patient with pulmonary infection by Etest method

Row | Structure (SMILES) | inhibition zone (IZ) (Klebsiella pneumoniae [1]) [mm] | inhibition zone (IZ) (Klebsiella pneumoniae [2]) [mm] | inhibition zone (IZ) (Klebsiella pneumoniae [3]) [mm] | MIC (Klebsiella pneumoniae [4]) [µg/mL] | MIC (Klebsiella pneumoniae [5]) [µg/mL] | MIC (Klebsiella pneumoniae [6]) [µg/mL]
1 | C[C@@H](O)[C@H]1C(=O)N2C(C(=O)O)=C(SCCNC=N)C[C@H]12 [IMIPENEM ANHYDROUS] | 21 | 20 | 26 | 3 (≈ 10 µM) | 2 (≈ 6.68 µM) | 0.064 (≈ 0.214 µM)
2 | C[C@@H](O)[C@H]1C(=O)N2C(C(=O)O)=C(S[C@@H]3CN[C@H](C(=O)N(C)C)C3)[C@H](C)[C@H]12 [MEROPENEM] | 14 | 13 | 27 | 8 (≈ 20.9 µM) | 4 (≈ 10.4 µM) | 0.25 (≈ 0.652 µM)
